The values below come from PubChem BioAssay (NCI).

Experiment in all cases: inhibition of tumour cell growth, NCI panel, 48 h
Test [1] concerns MOLT-4 leukemia.
The subject of test [2] is UACC-62 melanoma.
The subject of test [3] is OVCAR-8 ovarian.
The test system of test [4] is M14 melanoma.
For test [5], the system named is OVCAR-3 ovarian.
Test [6] has as its system SNB-75 CNS.
In test [7] the test system is RPMI-8226 leukemia.
The subject of test [8] is K-562 leukemia.
Test [9] has as its system RXF 393 renal.
Test [10] relates to NCI-H522 lung.
Test [11] has as its system HL-60(TB) leukemia.
For test [12], the system named is U251 CNS.
Test [13] deals with NCI-H23 lung.
The subject of test [14] is A498 renal.
The subject of test [15] is SK-MEL-2 melanoma.
For test [16], the system named is SR leukemia.
Test [17] has as its system MDA-MB-231 breast.

SMILES strings stand for the structures. “And” between values parts separate entries of the source, which are not always exact repeats. Equal entries are not always repeated.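 These data come from cells grown in 96-well plates and exposed to compound for 48 hours at five concentrations. GI50 is the concentration that inhibits growth by half. TGI denotes the concentration required for complete inhibition of growth.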 Where only a bound is given, the exact number is not on record here.

For `O=C1CC2CC=C[C@H]3c4cc5c(cc4C(=O)N1C23)OCO5` (some centres not stated), the TGI in test [1], in test [2], in [3], in test [4], in test [5] and in test [6] was more than 50 µM in each case. For the same molecule, the TGI in test [7], in test [8], in test [9], in test [10], in [11] and in test [12] was more than 50 µM each time. Moreover, the TGI in test [13] was more than 50 µM.
Consider `O=C(O)C(CS)NCc1c2ccccc2[n+]([O-])c2ccccc12` (configuration not stated), for which the TGI in test [1] was 78.9 µM; in test [2], more than 100 µM; in test [3], more than 100 µM; in test [14], more than 100 µM; in test [4], more than 100 µM; in [5] it was more than 100 µM. The TGI in [6] is more than 100 µM; in [7] it was 92.4 µM; in test [8] it was more than 100 µM; in [10] it was more than 100 µM; in test [11], 57 µM; in [15], more than 100 µM. Also, the TGI in test [12] and in [13] was more than 100 µM each time.
As for `O=C(Cc1ccccc1)NN1C(=O)C(Cl)C1c1cccc(O)c1` (configuration not stated), the TGI was found to be 31.6 µM in [1]; 15.4 µM in test [16]; 35.1 µM in [3]; 31.4 µM in test [4]; 28.1 µM in [5]; 74.6 µM in test [6]. In addition, the TGI in test [7] turned out to be 10.1 µM; in test [8], 34.7 µM; in test [9] it was 32.3 µM; in test [10] it was 23.2 µM; in test [11] it was 32.8 µM; in test [15], 59.5 µM. Moreover, the TGI in [12] came out at 24.4 µM; in test [13] it was 35.2 µM.
With `CCCCCCCCCCCCCCCC(=O)ON1C(=S)NC(C)(c2ccccc2)C1=S` (configuration not stated), the TGI is more than 100 µM in [1]; more than 100 µM in [2]; more than 100 µM in test [3]; more than 100 µM in test [14]; 80.1 µM in [4]; more than 100 µM in [5]. In addition, the TGI in test [6], in [7], in test [8], in [9], in test [11] and in test [15] was more than 100 µM in each case. Besides, the TGI in [17] and in [13] was more than 100 µM in each case.
On to `FC(F)(F)P1C2C=CC(CC2)C1(F)F` (configuration not stated), for which the TGI in [1], in test [2], in test [3], in test [14], in test [4] and in test [6] was more than 100 µM in each case. Further, the TGI in test [7], in test [8], in [9], in [10], in [11] and in test [15] was more than 100 µM in each case. For the same molecule, the TGI in test [12] and in test [13] was more than 100 µM each time.
As to `Cc1c(C(=O)CSc2nc3ccc([N+](=O)[O-])cc3[nH]2)c(=O)n(-c2ccccc2)n1C`, the TGI in test [1], in test [16], in test [3], in [14], in test [4] and in test [5] was more than 100 µM in each case. For the same molecule, the TGI in test [6], in test [7], in [10], in test [11], in test [15] and in test [12] was more than 100 µM in each case. This molecule also displayed a TGI in test [13] of more than 100 µM.
For the molecule `O=C1Nc2cccc3ncn(c23)C2=C1CCCC2`, the TGI in test [1], in test [2], in test [16], in test [3], in test [7] and in test [8] was more than 100 µM in each case. In addition, the TGI in [9], in [10], in test [11], in [15], in test [12] and in test [13] was more than 100 µM throughout.
Regarding `CC(=O)O[C@H]1C(=O)[C@@]2(C)C([C@H](OC(=O)c3ccccc3)[C@]3(O)C[C@H](OC(=O)[C@H](O)[C@H](NC(=O)c4ccccc4)c4ccc(Cl)cc4)C(C)=C1C3(C)C)C1(OC(C)=O)CO[C@@H]1C[C@@H]2O` (some centres not stated), the TGI amounted to 2.36 µM in test [1]; 0.00418 µM in [2]; 61.9 µM in test [3]; 30.4 µM in test [14]; 0.027 µM in test [4]; 0.0124 µM in [5]. The TGI in test [7] is 4.67 µM; in [8], 10.9 µM; in test [9], 0.0644 µM and 0.0869 µM; in [10], 0.00369 µM; in test [15] it was 0.0635 µM. Besides, the GI50 in [14] was 0.2 µM; in test [9], 0.0187 µM.
